# Reference: patent US20130005802A1, “TREATMENT OF WNT/FRIZZLED-RELATED DISEASES” (priority 2009, published 2013)
# Key:
# Frizzled1-GFP = Frizzled1-GFP (Rattus norvegicus, UniProt Q08463); assay: Image-based Frizzled1-GFP internalization assay (primary screening assay) in Fzd1GFP-U2OS cells; format: cell-based; settings: 6 hr, 0.47-7.5 μM tested
# Method: To obtain a Frizzled1-GFP stable cell line (Fzd1GFP-U2OS), U2OS cells were transfected with pCS2ratFrizzled1-GFP and pLKO.1 (10:1 ratio by weight), using the Nucleofection transfection protocol from Amaxa, and stable receptor expressing clones were selected using 1.5 μg/mL puromycin in the culture medium. For generating TOPFlash stable cell lines, HEK293 cells were transfected with p8xTOPFlash, the Renilla luciferase plasmid, and pLKO.1 at a ratio by weight of 10:3:1 and stable clones selected using 1 μg/mL puromycin in the growth medium. pLKO.1 was used to confer puromycin resistance to the stable clones.
# The plates were incubated overnight at 37° C. in 5% CO2. […]
# To measure the number of the internalized vesicles per cell, cytosol was carefully traced to exclude cell membrane. […] The number of internalized vesicles per cell was counted by the Metamorph software. More than 30 cells per sample were analyzed to obtain statistical significance. […]
# To determine the time-course of internalization for Frizzled1-GFP receptors, the accumulation of cytosolic puncta/vesicles was measured (FIG. 4A-4E). Internalization was assessed by counting the number of Frizzled1-GFP containing vesicles in the cytosol using the computer program Metamorph, and the results are presented in the graph for the given times (0 hr, n=51 cells; 1 hr, n=69; 2 hr, n=32; 4 hr, n=55, and 6 hr, n=61). […]
# β-catenin [1] = assay: Western blot of cytosolic β-catenin in colorectal cancer cells; format: cell-based
# Method: CRC explants and colorectal cancer cell lines were cultured in 6-well plates. […] After washing cells with PBS three times, hypotonic lysis buffer consist of 10 mM Tris-HCl, pH7.4 and 0.2 mM MgCl2, supplemented with 1× Halt Protease and Phosphatase Inhibitor Cocktail (Thermo Scientific Pierce Protein Research Products, Rockford, Ill.) were applied to make cell lyates for Western Blot.
# After washing cells with PBS, cell lysates were made with hypotonic lysis buffer.
# β-catenin [2] = assay: Immunoblot of Wnt3A-stimulated β-catenin stabilization in U2OS cells; format: cell-based
# From the text: After treatment, cytosolic fraction as well as cellular membrane were isolated as described (Mikels, A. J., et al. PLoS Biol 2006, 4, e115, incorporated herein by reference in its entirety). Immunoblots using β-catenin or Dishevelled-2 antibody were used to detect the respective protein levels in cytosol or on membrane, with β-actin immunoblots used for loading controls.
# The accumulation of cytosolic β-catenin is a measure of canonical Wnt signaling (Mikels, A. J., and Nusse, R. PLoS Biol 2006, 4, e115, incorporated herein by reference).
# β-catenin [3] = assay: Immunohistochemistry of β-catenin in treated tumors; format: in vivo, NOD/SCID mice; settings: 200 mg/kg, 2 or 3 weeks
# Method: Paraffin-embedded specimens were cut into 4 μm-thick of sequential sections. After dewaxing in xylene and rehydrating stepwise in ethanol, sections were subjected to heat-induced antigen retrieval. Endogenous peroxidase activity was blocked with 3% H2O2, and non-specific binding was blocked with non-immune horse sera. Sections were then incubated with primary antibodies overnight at 4C. Anti-β-catenin (sc-65483, Santa Cruz Biotechnology, Inc., Santa Cruz, Calif.) and anti-Dvl-2 (sc-8026, Santa Cruz Biotechnology, Inc., Santa Cruz, Calif.) monoclonal antibodies were used at (1:50) dilution. After rinsing the sections were incubated with the biotinylated secondary antibody (1:200 dilution; Dakopatts, Copenhagen, Denmark) for 30 min at room temperature and then with the avidin-biotin peroxidase complex from the Vector Elite ABC kit (Vector Laboratories, Burlingame, Calif.) according to the manufacturer's instructions. Visualization was achieved using 3,3′-diaminobenzidine tetrahydrochloride and H2O2. Specimens were counterstained with hematoxylin.
# NOD/SCID mice were implanted with colorectal cancer explants or cell lines. […] Tumors were excised and fixed with 10% neutralized, buffered formalin. Paraffin-embedded specimens were cut into 4 μm-thick of sequential sections. After dewaxing and rehydration, heat-induced antigen retrieval was performed. […]
# [4] = test system: peripheral blood mononuclear cells (PBMCs); format: cell-based; settings: human, 3 days
# Method: After 3 days incubation, all cells were harvested with 0.05% trypsin/EDTA and spun down by centrifugation. Cells were labeled with biotin-conjugated Annexin V, and then stained with 7-AAD and Streptavidin-APC. Samples were acquired by FACSCalibur machine (BD Bioscience) and analyzed with CellQuest software. Cells were analyzed for expression of Annexin V as a marker of apoptosis.
# Annexin V may be used as a marker for apoptosis and other forms of cell death. […] After 3 days of incubation, all cells were harvested with 0.05% trypsin/EDTA, labeled with biotin-conjugated Annexin V, and then stained with 7-AAD and streptavidin-APC. Samples were acquired by FACSCalibur, and percentages of annexin V-positive cells were analyzed and plotted as shown in FIG. 11. Cells were analyzed for expression of Annexin V as a marker of apoptosis.
# Sequence of Frizzled1-GFP (Q08463 69-641): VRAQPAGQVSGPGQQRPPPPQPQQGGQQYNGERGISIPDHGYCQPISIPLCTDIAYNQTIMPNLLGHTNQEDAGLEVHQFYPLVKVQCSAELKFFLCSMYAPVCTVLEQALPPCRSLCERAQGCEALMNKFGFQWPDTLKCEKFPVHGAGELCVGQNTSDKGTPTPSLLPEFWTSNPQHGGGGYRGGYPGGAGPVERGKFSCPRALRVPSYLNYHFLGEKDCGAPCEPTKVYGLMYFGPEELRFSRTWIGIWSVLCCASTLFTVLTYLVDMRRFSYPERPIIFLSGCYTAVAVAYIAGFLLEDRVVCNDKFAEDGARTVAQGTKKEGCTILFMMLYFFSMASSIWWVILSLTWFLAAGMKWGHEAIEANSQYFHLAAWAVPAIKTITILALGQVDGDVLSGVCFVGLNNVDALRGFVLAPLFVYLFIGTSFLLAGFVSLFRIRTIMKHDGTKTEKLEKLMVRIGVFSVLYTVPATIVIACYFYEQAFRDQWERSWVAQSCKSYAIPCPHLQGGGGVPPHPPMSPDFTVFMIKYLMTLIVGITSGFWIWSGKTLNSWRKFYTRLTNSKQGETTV
compound,measurement,setting,value
O=C(Nc1ccc([N+](=O)[O-])cc1Cl)c1cc(Cl)ccc1O [niclosamide],concentration with significant increase in the number of internalized receptors,Frizzled1-GFP,1 to 2 µM
same,cytosolic β-catenin expression,"β-catenin [1]; CRC057 and HCT116, 1, 5, 10 μM, 18 hr",downregulated
same,cytosolic β-catenin expression,β-catenin [1]; HT29 cells,milder change
same,Wnt3A-stimulated cytosolic β-catenin stabilization,"β-catenin [2]; 7.5 μM, cytosol",prevented
same,membrane-bound β-catenin levels,"β-catenin [2]; 7.5 μM, membrane",relatively unchanged
same,concentration range of the inhibitory effect on β-catenin stabilization,"β-catenin [2]; immunoblot, n=3",1 to 7.5 µM
same,IC50,"β-catenin [2]; immunoblot, n=3, read-out: half maximal inhibition of Wnt3A signaling (β-catenin stabilization)",~1000 nM
same,cytoplasmic expression of β-catenin in tumors vs control,β-catenin [3],decreased levels
same,doses at which apoptosis was shown (annexin V),[4],10 to 20 µM
